Measurements as given in patent publication US11406575B2, “Water-free/anhydrous cream shampoo” (Henkel IP & Holding GmbH, priority 2020, dated 2022).

Experiment: Viscosity, Brookfield RVT Viscometer, Spindle F (Example 6)
Assay type: physicochemical
Details: compared with SCI
Description: Compositions of the inventive shampoos can have a viscosity ranging from 120,000 cps to 3,000,000 cps. Viscosity can be measured using suitable viscometer known to those of skill in the art. The preferred viscosity range is 1,000,000 cps-2,000,000 cps using a Brookfield RVT Viscometer, Spindle F at 0.5 rpm for 90 sec, with around 1,500,000 cps being the most preferred.
The viscosity of various combinations of propanediol, SCI and SLMI was measured using a Brookfield RVT Viscometer, Spindle F.

Effect of an increase in the percentage of SLMI on viscosity of the shampoo compositions: significantly increases the viscosity
Compound: CCCCCCCCCCCC(=O)OC(C)CS(=O)(=O)[O-].[Na+] (stereo not shown) [SLMI, sodium lauroyl methyl isethionate]
